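The compound was tested at five concentrations on cells cultured in 96-well plates, with a 48-hour exposure period. GI50: concentration for 50% inhibition of growth. TGI marks complete inhibition of growth.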
Columns and labels:
Experiment in all cases: DTP human tumour cell line panel, 48 h
HCC-2998 colon = system: HCC-2998 colon
786-0 renal = system: 786-0 renal
OVCAR-4 ovarian = system: OVCAR-4 ovarian
SW-620 colon = system: SW-620 colon
SR leukemia = system: SR leukemia
ACHN renal = system: ACHN renal
K-562 leukemia = system: K-562 leukemia
MALME-3M melanoma = system: MALME-3M melanoma
HCT-15 colon = system: HCT-15 colon
MDA-MB-231 breast = system: MDA-MB-231 breast

Compound	TGI (HCC-2998 colon)	TGI (786-0 renal)	TGI (OVCAR-4 ovarian)	TGI (SW-620 colon)	TGI (SR leukemia)	TGI (ACHN renal)	TGI (K-562 leukemia)	TGI (MALME-3M melanoma)	TGI (HCT-15 colon)	TGI (MDA-MB-231 breast)	GI50 (HCC-2998 colon)	GI50 (786-0 renal)	GI50 (OVCAR-4 ovarian)	GI50 (SW-620 colon)	GI50 (SR leukemia)	GI50 (ACHN renal)	GI50 (K-562 leukemia)	GI50 (MALME-3M melanoma)	GI50 (HCT-15 colon)	GI50 (MDA-MB-231 breast)
CCCC[C@H]1C(=O)O[C@H](C)[C@H](NC(=O)c2cccc(NC=O)c2O)C(=O)O[C@@H](C)[C@@H]1OC(=O)CC(C)C	35.1 µM	35 µM	63.4 µM	68.3 µM	38.3 µM	36.1 µM	57.7 µM	50.9 µM	22 µM	32.8 µM	–	–	–	–	–	–	–	–	–	–
COc1cc2oc(=O)ccc2cc1C1OC(=O)C2OC21C (stereo not drawn)	> 100 µM	> 100 µM	> 100 µM	> 100 µM	> 100 µM	> 100 µM	> 100 µM	> 100 µM	> 100 µM	> 100 µM	–	–	–	–	–	–	–	–	–	–
CC(C)(C)N1CCC1C(N)=O (stereo not drawn)	> 100 µM	> 100 µM	> 100 µM	> 100 µM	> 100 µM	> 100 µM	> 100 µM	> 100 µM	> 100 µM	> 100 µM	> 100 µM	> 100 µM	> 100 µM	> 100 µM	> 100 µM	> 100 µM	> 100 µM	> 100 µM	> 100 µM	> 100 µM
OCc1cn(Cc2cccc(Cl)c2)c2ccccc12	28.3 µM	28.1 µM	11.3 µM	33.3 µM	44.1 µM	69.2 µM	31.9 µM	30.6 µM	43.8 µM	31.7 µM	12 µM	5.15 µM	0.107 µM	0.586 µM	12.3 µM	5.63 µM	1.99 µM	12.3 µM	5.79 µM	8.37 µM
Cc1cn(C2CC(F)C(CO)O2)c(=O)[nH]c1=O (stereo not drawn)	> 100 µM	> 100 µM	> 100 µM	–	> 100 µM	> 100 µM	> 100 µM	> 100 µM	> 100 µM	> 100 µM	> 100 µM	> 100 µM	> 100 µM	–	> 100 µM	> 100 µM	> 100 µM	> 100 µM	> 100 µM	> 100 µM
C[C@]12CCC3[C@@H](C[C@@H]4SC(Nc5ccccc5)=N[C@@]45CC(=O)CC[C@]35C)[C@@H]1CCC2=O (stereo partly drawn)	44.8 µM	13.1 µM	> 100 µM	15.6 µM	> 100 µM	29.5 µM	> 100 µM	> 100 µM	9.71 µM	> 100 µM	18.2 µM	3.02 µM	18.9 µM	3.38 µM	2.58 µM	7.81 µM	2.79 µM	21.2 µM	2.53 µM	13.4 µM
Cc1ccc2c(c1)nc(C(=O)c1ccco1)c(C(F)(F)F)[n+]2[O-]	> 100 µM	> 100 µM	> 100 µM	3.33 µM	> 100 µM	> 100 µM	> 100 µM	> 100 µM	> 100 µM	> 100 µM	> 100 µM	> 100 µM	76.3 µM	1.75 µM	64.4 µM	> 100 µM	40.5 µM	> 100 µM	> 100 µM	> 100 µM
